“And” between values parts separate entries of the source, which are not always exact repeats. Equal values may be shown once. Read-outs that look alike come from different tables or passages of the source.
Experiments:
[1] = Pharmacokinetic study in mouse; format: in vivo, CD-1 mouse
Method: Oral and IV doses were administered by oral gavage, or by tail vein injection in a 10% ethanol and 90% saline vehicle, respectively. For PO dosing, samples were taken at 0.167, 0.5, 1, 2, 4, 6 and 24 h p.d. For IV administration, samples were taken at 0.05, 0.167, 0.5, 1, 2, 4, 6 and 24 h p.d. Blood samples were centrifuged at 4° C. (2000 g, 5 minutes) to obtain plasma within 15 minutes after sample collection. The levels of Compound A were quantitated in mouse plasma by LC-MS/MS analysis. […] Typically, samples were injected onto an LC-MS/MS system using a Waters BEH Phenyl column. The aqueous mobile phase was water with 0.1% NH4OH (A), and the organic mobile phase was acetonitrile with 0.1% NH4OH (B). The gradient was as follows: 37% B for the first 0.2 min, increased to 44% B from 0.2 to 0.6 min, maintained at 44% B for 0.5 min, and decreased to 37% B within 0.05 min. The injection volume was 2 uL, and the total run time was 1.5 min with a flow rate of 0.6 mL/min. […] The ionization was conducted in the positive ion mode using the MRM transition [M+H]+m/z 563.5 parent ion to m/z 326.3 daughter ion, incorporating a turbo-ionspray interface. Eight to ten calibration standards were prepared in blank plasma of the relevant species providing a typical standard curve concentration range of 5-500 ng/mL. Pharmacokinetic parameters were calculated by noncompartmental methods using WinNonlin (version 5.3; Pharsight, St. Louis, Mo.). Parameters are presented as mean±S.D.

[2] = test system: MDR1-MDCK (P-glycoprotein) cells; test: MDCK cell permeability, MDR1-transfected cells; format: in vitro ADME, dog; conditions: from relative efflux ratio, transfected vs native cells
Method: (§1) Samples were taken from the donor and receiver chambers at 120 minutes. Each determination was performed in duplicate. Co-dosed lucifer yellow flux was also measured for each monolayer to ensure cell monolayers remained intact during the incubation. All samples were assayed by LC-MS/MS.

[3] = test system: P-glycoprotein (MDR1); test: MDCK cell permeability, MDR1-transfected cells; format: in vitro ADME, dog; conditions: dog, 10 uM
Method: as §1

[4] = Prediction of human pharmacokinetics by interspecies scaling
Text: PK endpoints of CL and VDss in mouse, rat and dog were used to scale to the corresponding parameters in human using a variety of allometric and interspecies scaling approaches as previously reported (Boxenbaum, Journal of Pharmacokinetics and Biopharmaceutics 10(2): 201-227, 1982; Jones et al., Journal of Pharmaceutical Sciences 100(10): 4074-4089, 2011; Lombardo et al., J Clin Pharmacol 53(2): 178-191, 2013a; Lombardo et al., J Clin Pharmacol 53(2): 167-177, 2013b; Mahmood & Balian, Xenobiotica 26(9): 887-895, 1996; Ring et al., Journal of Pharmaceutical Sciences 100(10): 4090-4110, 2011; Tang & Mayersohn, Journal of Pharmaceutical Sciences 95(8): 1783-1799, 2006; Tang & Mayersohn, Drug Metabolism and Disposition 33(9): 1297-1303, 2005; Vuppugalla et al., Journal of Pharmaceutical Sciences 100(10): 4111-4126, 2011). The likely predictive accuracy of each method was assessed based on visual inspection of the data fit, as well as values such as the R^2 and the allometric exponent, where appropriate.

[5] = Metabolite profiling in liver microsomes with NADPH and UDPGA, mouse; format: in vitro ADME; conditions: Compound A 10 μM, 20 min
Method: (§2) Compound A was incubated with liver microsomes of various species (mouse, rat, dog or human). […] For all liver microsomal incubations, samples were taken at 0 and 20 minutes. All samples were quenched by using acetonitrile/methanol solution and analyzed using an LC-MS/MS Q-Trap system (AB Sciex, Framingham, Mass.).
(§3) The corresponding product ion tandem mass spectra of Compound A and its metabolites were obtained by using enhanced product ion (EPI) scans during positive ion electrospray. The possible chemical structures of the metabolites were deduced based on their MS1 and MS2 spectra.

[6] = Metabolite profiling in liver microsomes with NADPH and UDPGA, rat; format: in vitro ADME; conditions: Compound A 10 μM, 20 min
Method: as §2, §3

[7] = test system: MLL-rearranged leukemia xenograft; conditions: cited from earlier work
[8] = male, CD-1, mouse, plasma, iv, 5 mg/kg, IV bolus
[9] = male, plasma, CD-1 mouse, IV bolus, 5 mg/kg
[10] = male, plasma, CD-1 mouse, PO, 20 mg/kg

In the case of `CC(C)N(C[C@H]1O[C@@H](n2cnc3c(N)ncnc32)[C@H](O)[C@@H]1O)[C@H]1C[C@@H](CCc2nc3cc(C(C)(C)C)ccc3[nH]2)C1` [Compound A, (2R,3R,4S,5R)-2-(6-amino-9H-purin-9-yl)-5-((((1r,3S)-3-(2-(5-(tert-butyl)-1H-benzo[d]imidazol-2-yl)ethyl)cyclobutyl)(isopropyl)amino)methyl)tetrahydrofuran-3,4-diol], the CL ([1]; CD-1 mouse, IV bolus, 5 mg/kg) is reported as 76.7 ± 11.5 mL/min/kg, the t1/2 ([1]; CD-1 mouse, IV bolus, 5 mg/kg) is reported as 68.4 ± 21 min and the F ([1]; CD-1 mouse, PO, 20 mg/kg) is reported as <1%. It also gave a Vd ([1]; male, CD-1, mouse, plasma, iv, 5 mg/kg, CD-1 mouse, IV bolus, 5 mg/kg, read-out: VDss) of 1.58 L/kg, a clearance [1, 8] of 77 mL/min/kg and a half-life [1, 8] of 66 min. For the same compound, the Vd ([1]; male, CD-1, mouse, plasma, iv, 5 mg/kg, mouse, read-out: Unbound VDss) was 11.4 L/kg, the AUC(0-inf) [1, 9] was 1.96 ± 0.3 µM·h and the AUC(0-t) [1, 9] was 1.95 ± 0.28 µM·h. For the same compound, the Cmax [1, 9] was 7.99 ± 1.9 µM, the MRT [1, 9] was 21 ± 3.6 min and the Tmax [1, 9] was 3 min. It also gave an AUC(0-t) [1, 10] of 0.0014 µM·h, a Cmax [1, 10] of 0.0019 µM and a Tmax [1, 10] of 30 min. For the same compound, the “oral bioavailability (in words)” value ([1]; mouse, PO) was “low and negligible”, the “P-gp substrate (in words)” value [2] was “not a substrate for P-gp” and the Papp A→B at 120 min, 10 uM ([3]; MDCK-MDR1, MDCK - MDR1 transfected, Apical-to-basolateral) was < 0.1 ×10⁻⁶ cm/s. The Papp B→A at 120 min, 10 uM ([3]; MDCK - MDR1 transfected, Basolateral-to-apical) was 0.22 ×10⁻⁶ cm/s, the “Predicted human VDss” value ([4]; Consensus prediction) was 2.8 L/kg and 2.76 L/kg and the “Predicted human CL” value ([4]; Consensus prediction (excludes simple allometry)) was 6.5 mL/min/kg. For the same compound, the “Predicted human CL” value ([4]; MLR rat-dog) was 11 mL/min/kg and 10.7 mL/min/kg, the “Predicted human VDss” value ([4]; Oie-Tozer equation, rat and dog data) was 0.97 L/kg and the “Predicted human CL” value ([4]; Simple allometry) was 13.3 mL/min/kg. For the same compound, the “Predicted human VDss” value ([4]; Simple allometry) was 2.71 L/kg, the “allometric exponent for CL” value ([4]; Simple allometry) was 0.76 and the “Predicted human VDss” value ([4]; Simple allometry - unbound) was 1.16 L/kg. The “Predicted human VDss” value ([4]; Wajima equation, rat and dog data) was 6.2 L/kg, the “human CL estimates” value ([4]; across multiple, diverse scaling approaches) was 6 to 8 mL/min/kg and the “Predicted human VDss” value ([4]; simple allometry (total and unbound) and Oie-Tozer equation) was 1 to 3 L/kg. The “Predicted human VDss” value ([4]; simple allometry using total and unbound terms) was 1.2 to 2.7 L/kg, the “Abundance based on UV spectra” value [5] was 25.4% and the “Abundance based on UV spectra” value [6] was 59.4%. The tumor response ([7]; continuous intravenous (IV) infusion, rat xenograft) was “complete tumor regressions” and the “weight loss or signs of toxicity” value ([7]; rat, in vivo, iv) was “no significant weight loss or signs of toxicity”.
